From US11401278B2, “Macrocyclic indole derivatives” (The Broad Institute, Inc., priority 2017, dated 2022)
“And” between values parts separate entries of the source, which are not always exact repeats. Equal entries are not always repeated. Structures can show the parent of a compound that is named as a salt. Where two headings read alike, the source gives them in different places.

Assays:
SUDHL5 = experiment: Induction of caspase-3/7 activity (Assay 4), SUDHL5; type: cell-based; settings: caspase-3/7 induction, median
How it was run: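 Caspase-3/7 activity measured by Caspase-Glo 3/7 luminescence in DLBCL cells after 3 h compound treatment at 37 °C. Medium-only background subtracted. EC50 fitted with C0 fixed at 1 and top set to the reference compound's plateau/max induction.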

HMC-1-8 = experiment: Antiproliferation assay (Assay 7), HMC-1-8; type: cell-based; settings: CellTiter-Glo, several values per example, read-out: Antiproli HMC-1-8 [M] IC50
How it was run: (§1)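 Luminescent ATP-based viability (CellTiter-Glo) measured after 72 hours of compound treatment at 37° C, alongside a time-zero plate read on the day of plating.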

BCL-XL = BCL-XL (Homo sapiens (Human), UniProt Q07817); experiment: Protein-protein interaction assay BCL-XL/Bad BH3 peptide (BCL-XL assay, TR-FRET); type: binding; settings: His-BCL-XL / Bad BH3 peptide, median
Sequence of BCL-XL (Q07817 other isoform, or with tags, fused parts or gaps): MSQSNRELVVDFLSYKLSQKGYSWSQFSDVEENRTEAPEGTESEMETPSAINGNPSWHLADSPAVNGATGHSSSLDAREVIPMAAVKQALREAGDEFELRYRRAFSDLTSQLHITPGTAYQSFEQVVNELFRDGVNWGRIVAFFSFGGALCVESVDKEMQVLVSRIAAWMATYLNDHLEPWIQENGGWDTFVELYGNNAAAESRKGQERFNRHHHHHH
How it was run: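 His-tagged human BCL-XL (aa 1-212, 1 nM final) was preincubated 10 min at 22 °C with compound (11 concentrations, 0.1 nM–20 μM), then biotinylated Bad BH3 peptide (1 nM) and TR-FRET reagents were added. Incubation: 1 h at 22 °C, then overnight at 4 °C, pH 7 Tris buffer. IC50 from 4-parameter fit of 665/620 ratio.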

AMO-1 = experiment: Antiproliferation assay (Assay 7), AMO-1; type: cell-based; settings: CellTiter-Glo, several values per example, read-out: Antiproli AMO-1 [M] IC50
How it was run: as §1

| EC50 (SUDHL5; 3 hours) [nM] | IC50 (BCL-XL) [nM] | EC50 (SUDHL5; Homo sapiens, SU-DHL-5, 3 h) [nM] | Structure (SMILES) | IC50 (HMC-1-8; 72 hours) | IC50 (AMO-1; 72 hours) | IC50 (HMC-1-8; 72 h) [M] | IC50 (AMO-1; Homo sapiens, AMO1, 72 h) [M] |
| --- | --- | --- | --- | --- | --- | --- | --- |
| – | > 20000 | 1100 | Cc1c2c(nn1C)C(CCN1CCOCC1)N(C)S(=O)(=O)CCCn1c(C(=O)O)c(CCCOc3cccc4ccccc34)c3cccc-2c31 (racemic) [Example 44, (rac)-2,3,14-trimethyl-15-[2-(rac)-(morpholin-4-yl)ethyl]-7-[3-(1-naphthyloxy)propyl]-11,12,14,15-tetrahydro-2H,10H-pyrazolo[3′,4′:4,5][1,2,8]thiadiazacycloundecino[6,7,8-hi]indole-8-carboxylic acid 13,13-dioxide (Mixture of Stereoisomers)] | – | – | 1.2e-05 | 4.4e-06 |
| – | > 20000 | 220 | Cc1c2c(nn1C)C(N1CCOCC1)CCN(C)S(=O)(=O)CCCn1c(C(=O)O)c(CCCOc3cccc4cc(F)ccc34)c3ccc(Cl)c-2c31 (racemic) [Example 47, (rac)-15-chloro-1-(3-((6-fluoronaphthalen-1-yl)oxy)propyl)-8,13,14-trimethyl-11-(rac)-morpholino-5,6,9,10,11,13-hexahydro-4H,8H-pyrazolo[3′,4′:6,7][1]thia[2,10]diazacyclotridecino[8,9,10-hi]indole-2-carboxylic acid 7,7-dioxide (Mixture of Stereoisomers)] | 1.2e-05 M | – | 8e-06 | – |
| 13 | > 20000 | – | Cc1c2c(nn1C)C(CCN1CCOCC1)N(C)S(=O)(=O)CCCn1c(C(=O)O)c(CCCOc3cccc4cc(F)ccc34)c3ccc(Cl)c-2c31 (racemic) [Example 48, (rac)-4-chloro-7-{3-[(6-fluoro-1-naphthyl)oxy]propyl}-2,3,14-trimethyl-15-(rac)-[2-(morpholin-4-yl)ethyl]-11,12,14,15-tetrahydro-2H,10H-pyrazolo[3′,4′:4,5][1,2,8]thiadiazacycloundecino[6,7,8-hi]indole-8-carboxylic acid 13,13-dioxide (Mixture of Stereoisomers)] | 9.8e-07 M and 9.3e-07 M | – | – | – |
| – | > 20000 | 210 | COc1ccc(CN2Cc3nn(C)c(C)c3-c3c(Cl)ccc4c(CCCOc5cccc6cc(F)ccc56)c(C(=O)O)n(c34)CCCS2(=O)=O)c(OC)c1 (racemic) [Example 49, (rac)-4-chloro-14-(2,4-dimethoxybenzyl)-7-{3-[(6-fluoro-1-naphthyl)oxy]propyl}-2,3-dimethyl-11,12,14,15-tetrahydro-2H,10H-pyrazolo[3′,4′:4,5][1,2,8]thiadiazacycloundecino[6,7,8-hi]indole-8-carboxylic acid 13,13-dioxide] | 5.8e-06 M | – | 7.8e-06 | – |
| – | > 20000 | 650 | Cc1c2c(nn1C)CNS(=O)(=O)CCCn1c(C(=O)O)c(CCCOc3cccc4cc(F)ccc34)c3ccc(Cl)c-2c31 (racemic) [Example 50, (rac)-4-chloro-7-{3-[(6-fluoro-1-naphthyl)oxy]propyl}-2,3-dimethyl-11,12,14,15-tetrahydro-2H,10H-pyrazolo[3′,4′:4,5][1,2,8]thiadiazacycloundecino[6,7,8-hi]indole-8-carboxylic acid 13,13-dioxide] | – | – | 3e-05 | – |
| 550 | 16000 | – | CCc1c2c(nn1C)CN(C1CC1)S(=O)(=O)CCCn1c(C(=O)O)c(CCCOc3cccc4cc(F)ccc34)c3ccc(Cl)c-2c31 (racemic) [Example 53, (rac)-4-chloro-14-cyclopropyl-3-ethyl-7-{3-[(6-fluoro-1-naphthyl)oxy]propyl}-2-methyl-11,12,14,15-tetrahydro-2H,10H-pyrazolo[3′,4′:4,5][1,2,8]thiadiazacycloundecino[6,7,8-hi]indole-8-carboxylic acid 13,13-dioxide] | 5e-06 M and 6.4e-06 M and 7.7e-06 M | – | – | – |
| 37 | 16000 | – | CCc1c2c(nn1C)C(CCC1CCOCC1)N(C)S(=O)(=O)CCCn1c(C(=O)O)c(CCCOc3cccc4cc(F)ccc34)c3ccc(Cl)c-2c31 (racemic) [Example 59, (rac)-4-chloro-3-ethyl-7-{3-[(6-fluoro-1-naphthyl)oxy]propyl}-2,14-dimethyl-15-[2-(tetrahydro-2H-pyran-4-yl)ethyl]-11,12,14,15-tetrahydro-2H,10H-pyrazolo[3′,4′:4,5][1,2,8]thiadiazacycloundecino[6,7,8-hi]indole-8-carboxylic acid 13,13-dioxide (Racemate 2)] | 6e-07 M | 2.1e-07 M | – | – |
| 18 | > 20000 | – | CCc1c2c(nn1C)C(CCC1CCOCC1)N(C)S(=O)(=O)CCCn1c(C(=O)O)c(CCCOc3cccc4cc(F)ccc34)c3ccc(Cl)c-2c31 (racemic) [Example 60, (rac)-4-chloro-3-ethyl-7-{3-[(6-fluoro-1-naphthyl)oxy]propyl}-2,14-dimethyl-15-[2-(tetrahydro-2H-pyran-4-yl)ethyl]-11,12,14,15-tetrahydro-2H,10H-pyrazolo[3′,4′:4,5][1,2,8]thiadiazacycloundecino[6,7,8-hi]indole-8-carboxylic acid 13,13-dioxide (Racemate 1)] | 1.9e-07 M | 4.4e-08 M | – | – |
| 47 | > 20000 | – | Cc1c2c(nn1C)C(CCN1CCOCC1)N(C)S(=O)(=O)CCCn1c(C(=O)O)c(CCCOc3cccc4cc(F)ccc34)c3ccc(Cl)c-2c31 (racemic) [Example 65, (rac)-4-chloro-7-{3-[(6-fluoronaphthalen-1-yl)oxy]propyl}-2,3,14-trimethyl-15-(rac)-[2-(morpholin-4-yl)ethyl]-13,13-dioxo-10,11,12,13,14,15-hexahydro-2H-13lambda^6-pyrazolo[3′,4′:4,5][1,2,8]thiadiazacycloundecino[6,7,8-hi]indole-8-carboxylic acid (Mixture of Stereoisomers)] | – | 7.1e-08 M | 1.5e-06 | – |
| 120 | – | – | CCc1c2c(nn1C)CN(CC)S(=O)(=O)CCCn1c(C(=O)O)c(CCCOc3cccc4cc(F)ccc34)c3ccc(Cl)c-2c31 (single isomer, unassigned; enantiomer 1) [Example 57, (+)-4-chloro-3,14-diethyl-7-{3-[(6-fluoronaphthalen-1-yl)oxy]propyl}-2-methyl-13,13-dioxo-10,11,12,13,14,15-hexahydro-2H-13lambda^6-pyrazolo[3′,4′:4,5][1,2,8]thiadiazacycloundecino[6,7,8-hi]indole-8-carboxylic acid N-ethylethanamine Salt (Enantiomer 1)] | 9.1e-07 M and 1.3e-06 M | 1.6e-07 M and 1.3e-07 M | – | – |

| Structure (SMILES) | EC50 (SUDHL5; 3 hours) [nM] | IC50 (BCL-XL) [nM] | EC50 (SUDHL5; Homo sapiens, SU-DHL-5, 3 h) [nM] | IC50 (HMC-1-8; 72 hours) | IC50 (AMO-1; 72 hours) | IC50 (HMC-1-8; 72 h) [M] | IC50 (AMO-1; Homo sapiens, AMO1, 72 h) [M] |
| --- | --- | --- | --- | --- | --- | --- | --- |
| Cc1c2c(nn1C)CN(C1CC1)S(=O)(=O)CCCn1c(C(=O)O)c(CCCOc3cccc4cc(F)ccc34)c3ccc(Cl)c-2c31 (racemic) [Example 41, (rac)-4-chloro-14-cyclopropyl-7-{3-[(6-fluoro-1-naphthyl)oxy]propyl}-2,3-dimethyl-11,12,14,15-tetrahydro-2H,10H-pyrazolo[3′,4′:4,5][1,2,8]thiadiazacycloundecino[6,7,8-hi]indole-8-carboxylic acid 13,13-dioxide] | 820 | 19000 | – | 3.9e-06 M | 8e-07 M | – | – |
